Consider eight compounds from patent US20160108049A1 (TAKEDA Gmbh, priority 2011, published 2016).

One test addresses T1, PDE4B1 (Homo sapiens, UniProt Q07343).
T1 construct: made in house; host or cells: SF21 insect cells (baculovirus; virus made in SF9 cells, pCR-Bac vector)
The test is described as follows: Inhibition of PDE4 activity (PDE4B1, SPA assay). The class given is biochemical. The following applies: recombinant PDE4B1, 0.5 μM cAMP; read-out: PDE4B1 Inhibitory values measured as -logIC50 (converted). The protocol: Method for Measuring Inhibition of PDE4 Activity
The PDE4B1 (GB no. L20966) was a gift of Prof. M. Conti (Stanford University, USA). It was amplified from the original plasmid (pCMV5) via PCR with primers Rb18 (5′-[…]-3′) and Rb10 (5′-[…]-3′) and cloned into the pCR-Bac vector (Invitrogen, Groningen, NL).
The recombinant baculovirus was prepared by means of homologous recombination in SF9 insect cells. The expression plasmids were cotransfected with Baculo-Gold DNA (Pharmingen, Hamburg) using a standard protocol (Pharmingen, Hamburg). Wt virus-free recombinant virus supernatants were selected using plaque assay methods. After that, high-titre virus supernatants were prepared by amplifying 3 times. PDE4B1 was expressed in SF21 cells by infecting 2×10^6 cells/ml with an MOI (multiplicity of infection) between 1 and 10 in the serum-free SF900 medium (GIBCO Life Technologies, Karlsruhe, Germany) The cells were cultured at 28° C. for 48-72 hours, after which they were pelleted for 5-10 min at 1000×g and 4° C.
The SF21 insect cells were resuspended, at a concentration of approx. 10^7 cells/ml, in ice-cold (4° C.) homogenization buffer (20 mM Tris, pH 8.2, containing the following additions: 140 mM NaCl, 3.8 mM KCl, 1 mM EGTA, 1 mM MgCl2, 10 mM β-mercaptoethanol, 2 mM benzamidine, 0.4 mM Pefablock, 10 μM leupeptin, 10 μM pepstatin A, 5 μM trypsin inhibitor) and disrupted by ultrasonication. The homogenate was then centrifuged for 10 min at 1000×g and the supernatant was stored at −80° C. until subsequent use (see below). The protein content was determined by the Bradford method (BioRad, Munich) using BSA (Bovine serum albumin) as the standard.
PDE4B1 activities were measured in a 96-well platform using SPA (scintillation proximity assay) yttrium silicate beads (RPNQ1050 from GE Healthcare). In a first step the PDE activity operated hydrolysis of either [^3H] cAMP (substrate) into […]. In a second step substrate and product were distinguished following addition of SPA yttrium silicate beads. […] Close proximity of bound [^3H] […] The test volume was 100 μl and finally contained 20 mM Tris buffer (pH 7.4), 0.1 mg/ml of BSA, 5 mM Mg^2+, 0.5 μM cAMP (including about 50,000 cpm of [3H]cAMP) as substrate, 1 μl of the respective substance dilution in DMSO and sufficient recombinant PDE (1000×g supernatant, see above) to ensure that 10-20% of the cAMP was converted under the said experimental conditions. […] After a preincubation of 5 min at 37° C., the reaction was commenced by adding the substrate (cAMP) and the assays were incubated for a further 15 min. Reactions were terminated by adding SPA beads (50 μl). In agreement with the manufacturer's instructions, the SPA beads had previously been resuspended in water, but were then diluted 1:3 (v/v) in water. This diluted solution further contained 3 mM IBMX (isobutylmethylxanthine) to ensure a complete block of PDE activity. Once the beads were sedimented (>30 min), the MTP's (micro titerplate) were analyzed in commercially available […]. The corresponding IC50 values of the compounds for inhibition of PDE4B1 activity were determined from the concentration-effect curves by means of non-linear regression.
(§1) The numbers of the compounds correspond to the numbers of the examples.

For another test, the target named is T2, human PDE5 (Homo sapiens, UniProt O76074).
T2 construct: from tissue; host or cells: human platelets from fresh donor blood (platelet lysate)
Briefly: Inhibition of PDE5 activity (platelet lysate, SPA assay). It is filed as biochemical. The settings on record: 0.5 μM cGMP, read-out: PDE5 Inhibitory values measured as -logIC50 (converted). The protocol:
Method for Measuring Inhibition of PDE5 Activity
As a source for human PDE5, platelets were used. For that purpose, 150 ml fresh blood from human donors anticoagulated with citrate [final concentration 0.3% (w/v)] was centrifuged at 200 g for 10 min to obtain the so-called platelet-rich-plasma (PRP) as a supernatant. […] After centrifugation (1,400 g, 10 min) the cell pellet was resuspended in 3 ml homogenization buffer (NaCl 140 mM, KCl 3.8 mM, EGTA (ethylene glycol tetraacetic acid) 1 mM, MgCl2 1 mM, Tris-HCl 20 mM, beta-mercaptoethanol 1 mM, pH 8.2) plus protease-inhibitor mix resulting in final concentrations of 0.5 mM Pefablock (Roche), 10 μM Leupeptin, 5 μM Trypsine inhibitor, 2 mM Benzamidin and 10 μM Pepstatin A. The suspension was sonicated and thereafter centrifuged for 15 min at 10,000 g. The resulting supernatant (platelet lysate) was used for enzymatic assays.
PDE5 activities were measured in a 96-well platform using SPA (scintillation proximity assay) yttrium silicate beads (RPNQ1050 from GE Healthcare). In a first step the PDE activity operated hydrolysis of either [^3H] cGMP (substrate) into [^3H] 5′GMP. In a second step substrate and product were distinguished following addition of SPA yttrium silicate beads. Indeed, in the presence of zinc sulphate the linear [^3H] […] Close proximity of bound [^3H] […] The test volume was 100 μl and contained 20 mM Tris buffer (pH 7.4), 0.1 mg of BSA (bovine serum albumin)/ml, 5 mM Mg^2+, 1 μM motapizone (PDE3 Inhibitor), 10 nM PDE2 inhibitor 2-(3,4-dimethoxybenzyl)-7-[(1R,2R)-2-hydroxy-1-(2-phenylethyl)propyl]-5-methylimidazo[5,1-f][1,2,4]triazin-4(3H)-one, 0.5 μM cGMP (cyclic guanosine monophosphate) (including about 50,000 cpm of [3H]cGMP as a tracer) (substrate), 1 μl of the respective compound dilution in dimethylsulfoxide (DMSO) and sufficient PDE5-containing platelet lysat (10,000×g supernatant, see above) to ensure that 10-20% of the cGMP was converted under the said experimental conditions. […] After a preincubation of 5 min at 37° C., the reaction was commenced by adding the substrate (cGMP) and the assay was incubated for a further 15 min. The reaction was terminated by adding SPA beads (50 μl). In agreement with the manufacturer's instructions, the SPA beads had previously been resuspended in water, but were then diluted 1:3 (v/v) in water. This diluted solution also contained 3 mM 8-methoxymethyl-3-isobutyl-1-methylxanthine (IBMX) to ensure a complete block of PDE activity. Once the beads were sedimented (>30 min), the MTP's were analyzed in commercially available luminescence detection devices. The corresponding IC50 values of the compounds for inhibition of PDE activity were determined from the concentration-effect curves by means of non-linear regression.
as §1

T1 sequence (Q07343 whole entry): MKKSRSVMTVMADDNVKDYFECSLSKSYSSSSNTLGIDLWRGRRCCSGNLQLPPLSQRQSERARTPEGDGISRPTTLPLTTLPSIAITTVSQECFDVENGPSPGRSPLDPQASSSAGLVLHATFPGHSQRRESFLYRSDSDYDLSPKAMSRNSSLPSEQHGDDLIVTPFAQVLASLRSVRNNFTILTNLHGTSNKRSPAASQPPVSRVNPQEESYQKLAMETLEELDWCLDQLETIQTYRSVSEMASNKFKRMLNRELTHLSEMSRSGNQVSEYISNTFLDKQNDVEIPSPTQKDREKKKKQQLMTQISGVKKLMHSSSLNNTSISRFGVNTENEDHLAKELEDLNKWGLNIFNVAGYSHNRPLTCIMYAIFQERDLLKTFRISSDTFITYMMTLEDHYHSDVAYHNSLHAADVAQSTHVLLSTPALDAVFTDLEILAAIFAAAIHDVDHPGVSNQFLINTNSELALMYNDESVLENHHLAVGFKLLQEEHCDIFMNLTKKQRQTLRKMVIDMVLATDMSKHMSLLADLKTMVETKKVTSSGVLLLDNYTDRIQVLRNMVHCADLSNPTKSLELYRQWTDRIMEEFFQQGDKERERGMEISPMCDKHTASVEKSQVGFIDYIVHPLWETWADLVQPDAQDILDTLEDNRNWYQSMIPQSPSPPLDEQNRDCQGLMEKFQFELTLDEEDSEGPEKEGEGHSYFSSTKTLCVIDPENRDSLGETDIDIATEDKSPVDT

`COc1ccc(C2=NN(C3CCN(C(=O)[C@@H](Cc4cc(F)cc(F)c4)NC(=O)c4c[nH]c5c(-c6c(OCC7CC7)ccc7c6OCO7)ncnc45)CC3)C(=O)[C@@H]3CCCC[C@H]23)cc1OC` [Example 1, 4-[5-(cyclopropylmethoxy)-1,3-benzodioxol-4-yl]-N-[(2R)-3-(3,5-difluorophenyl)-1-{4-[(4aS,8aR)-4-(3,4-dimethoxyphenyl)-1-oxo-4a,5,6,7,8,8a-hexahydrophthalazin-2(1H)-yl]piperidin-1-yl}-1-oxopropan-2-yl]-5H-pyrrolo[3,2-d]pyrimidine-7-carboxamide]: the IC50 at PDE4B1 is under 1 nM; at human PDE5, 1 to 10 nM.

Turning to `COc1cc(OCC2CC2)c(-c2ncnc3c(C(=O)N[C@@H](Cc4cccc(C)c4)C(=O)N4CCC(N5N=C(c6ccc(OC)c(OC)c6)[C@H]6CCCC[C@H]6C5=O)CC4)c(C)[nH]c23)cc1F` [Example 2, 4-[2-(cyclopropylmethoxy)-5-fluoro-4-methoxyphenyl]-N-[(2S)-1-{4-[(4aS,8aR)-4-(3,4-dimethoxyphenyl)-1-oxo-4a,5,6,7,8,8a-hexahydrophthalazin-2(1H)-yl]piperidin-1-yl}-3-(3-methylphenyl)-1-oxopropan-2-yl]-6-methyl-5H-pyrrolo[3,2-d]pyrimidine-7-carboxamide], the IC50 at PDE4B1 and on human PDE5 was 1 to 10 nM in each case.

Consider `COc1ccc(C2=NN(C3CCN(C(=O)[C@H](Cc4cccc(C)c4)NC(=O)c4c[nH]c5c(-c6c(OCC7CC7)ccc7c6OCO7)ncnc45)CC3)C(=O)[C@@H]3CCCC[C@H]23)cc1OC` [Example 3, 4-[5-(cyclopropylmethoxy)-1,3-benzodioxol-4-yl]-N-[(2S)-1-{4-[(4aS,8aR)-4-(3,4-dimethoxyphenyl)-1-oxo-4a,5,6,7,8,8a-hexahydrophthalazin-2(1H)-yl]piperidin-1-yl}-3-(3-methylphenyl)-1-oxopropan-2-yl]-5H-pyrrolo[3,2-d]pyrimidine-7-carboxamide], for which the IC50 was under 1 nM on PDE4B1 and 1 to 10 nM on human PDE5.

For the compound `COc1ccc(C2=NN(C3CCN(C(=O)[C@H](Cc4cccc(C)c4)NC(=O)c4c(C)[nH]c5c(-c6c(OCC7CC7)ccc7c6OCO7)ncnc45)CC3)C(=O)[C@@H]3CCCC[C@H]23)cc1OC` [Example 4, 4-[5-(cyclopropylmethoxy)-1,3-benzodioxol-4-yl]-N-[(2S)-1-{4-[(4aS,8aR)-4-(3,4-dimethoxyphenyl)-1-oxo-4a,5,6,7,8,8a-hexahydrophthalazin-2(1H)-yl]piperidin-1-yl}-3-(3-methylphenyl)-1-oxopropan-2-yl]-6-methyl-5H-pyrrolo[3,2-d]pyrimidine-7-carboxamide], the IC50 on PDE4B1 and at human PDE5 was 1 to 10 nM each time.

For the compound `COc1cc(OCC2CC2)c(-c2ncnc3c(C(=O)N[C@H](Cc4ccc(C(C)(C)C)cc4)C(=O)N4CCC(N5N=C(c6ccc(OC)c(OC)c6)[C@H]6CCCC[C@H]6C5=O)CC4)c(C)[nH]c23)cc1F` [Example 5, N-[(2R)-3-(4-tert-butylphenyl)-1-{4-[(4aS,8aR)-4-(3,4-dimethoxyphenyl)-1-oxo-4a,5,6,7,8,8a-hexahydrophthalazin-2(1H)-yl]piperidin-1-yl}-1-oxopropan-2-yl]-4-[2-(cyclopropylmethoxy)-5-fluoro-4-methoxyphenyl]-6-methyl-5H-pyrrolo[3,2-d]pyrimidine-7-carboxamide], the IC50 at PDE4B1 and at human PDE5 was 1 to 10 nM throughout.

For the compound `COc1ccc(C2=NN(C3CCN(C(=O)[C@@H](Cc4ccc(C(C)(C)C)cc4)NC(=O)c4c[nH]c5c(-c6c(OCC7CC7)ccc7c6OCO7)ncnc45)CC3)C(=O)[C@@H]3CCCC[C@H]23)cc1OC` [Example 6, N-[(2R)-3-(4-tert-butylphenyl)-1-{4-[(4aS,8aR)-4-(3,4-dimethoxyphenyl)-1-oxo-4a,5,6,7,8,8a-hexahydrophthalazin-2(1H)-yl]piperidin-1-yl}-1-oxopropan-2-yl]-4-[5-(cyclopropylmethoxy)-1,3-benzodioxol-4-yl]-5H-pyrrolo[3,2-d]pyrimidine-7-carboxamide], the IC50 on PDE4B1 and at human PDE5 was 1 to 10 nM in each case.

As to `COc1ccc(C2=NN(C3CCN(C(=O)[C@@H](Cc4ccc(C(N)=O)cc4)NC(=O)c4c[nH]c5c(-c6c(OCC7CC7)ccc7c6OCO7)ncnc45)CC3)C(=O)[C@@H]3CCCC[C@H]23)cc1OC` [Example 7, N-[(2R)-3-(4-carbamoylphenyl)-1-{4-[(4aS,8aR)-4-(3,4-dimethoxyphenyl)-1-oxo-4a,5,6,7,8,8a-hexahydrophthalazin-2(1H)-yl]piperidin-1-yl}-1-oxopropan-2-yl]-4-[5-(cyclopropylmethoxy)-1,3-benzodioxol-4-yl]-5H-pyrrolo[3,2-d]pyrimidine-7-carboxamide], the IC50 was 1 to 10 nM on PDE4B1 and under 1 nM on human PDE5.

Consider `COc1ccc(C2=NN(C3CCN(C(=O)[C@H](Cc4cscn4)NC(=O)c4c(C)[nH]c5c(-c6c(OCC7CC7)ccc7c6OCO7)ncnc45)CC3)C(=O)[C@@H]3CCCC[C@H]23)cc1OC` [Example 87, 4-[5-(cyclopropylmethoxy)-1,3-benzodioxol-4-yl]-N-[(2S)-1-{4-[(4aS,8aR)-4-(3,4-dimethoxyphenyl)-1-oxo-4a,5,6,7,8,8a-hexahydrophthalazin-2(1H)-yl]piperidin-1-yl}-1-oxo-3-(1,3-thiazol-4-yl)propan-2-yl]-6-methyl-5H-pyrrolo[3,2-d]pyrimidine-7-carboxamide], for which the IC50 at human PDE5 was under 1 nM.
